Assay results published in paper PMC6384738, “Structure-Function Studies of Polymyxin B Lipononapeptides” (Molecules, 2019).
Values after ≈ are worked out from the molar mass of the structure shown. Where a SMILES comes first, the peptide text is derived from it. Bridges are numbered along the chain shown (N, C = ends). [ ]: non-standard residue; d: D form. The star is where a group is joined. Isonicotinoyl(2-Ph) = O=C(c1ccnc(-c2ccccc2)c1)*; X2 = CCCCCOc1cccc(C(=O)*)c1; dOrn = NCCC[C@@H](N)C(=O)O; Octanoyl = CCCCCCCC(=O)*; Dab = NCC[C@H](N)C(=O)O

What was measured:
in vitro = conditions: human
Description: (§1) All compounds synthesised in this study were assessed for their minimum inhibitory concentrations (MIC, mg/L) by broth microdilution assay against five antibiotic-sensitive and resistant ATCC reference strains covering the Gram-negative ESKAPE pathogens (Escherichia coli, Klebsiella pneumoniae, A. baumannii, and P. aeruginosa) (Table 1, Table 2 and Table 3). Staphylococcus aureus was also included as a representative Gram-positive bacterial strain. […] Polymyxin B 1, colistin 2, vancomycin and gentamicin were used as positive inhibitor comparator compounds. Compounds were counter-screened against human proximal tubular epithelial cells (HK-2), using LDH release as a general indicator of cellular toxicity.
Cytotoxicity to human kidney proximal tubular epithelial cell line, HK-2 (ATCC CRL-2190, sourced from ATCC; Manassas, VA, USA) was determined using the LDH assay as previously described. In brief, HK-2 cells were seeded as 2000 cells/well in black-walled clear bottom 384-well tissue culture treated plates (Corning, catalogue No. 3712) in DMEM/F12 medium (Gibco® 10565-042) containing 10% of Fetal Bovine Serum (FBS, Gibco® 10099-141) and incubated for 24 h at 37 °C, 5% CO2. Compounds were then added into each well with a concentration series from 300 µM to 2.3 µM in 2-fold dilutions. Colistin and polymyxin B were used as controls and tested at a final concentration range of 1 mM to 7.8 µM. The cells were incubated with the compounds for 24 h at 37 °C, 5% CO2. After the incubation, 5 µL of culture medium was added to 45 µL of LDH assay buffer (Biovision, K313-500) and incubated for 30 min at room temperature. The absorbance (ABS) was then read at 450 nm using a Polar Star Omega plate reader. The data was analysed by Prism 6 software (GraphPad Software, La Jolla, CA, USA). Results were calculated using the following equation: cytotoxicity %= (ABSsamples − ABSuntreated/ABS1%Triton X-100 − ABSuntreated) × 100.

S. aureus ATCC 25923 = assay: microbe, parasite or virus in culture; conditions: ATCC 25923, 18 h
Description: as §1

A. baumannii ATCC 19606 = assay: microbe, parasite or virus in culture; conditions: ATCC 19606, 18 h
Description: as §1

K. pneumoniae BAA 2146 = assay: microbe, parasite or virus in culture; conditions: BAA 2146, 18 h
Description: as §1

[1] = test system: K. pneumoniae ATCC 700603; assay: microbe, parasite or virus in culture; conditions: ATCC 700603, 18 h
Description: as §1

K. pneumoniae ATCC 13833 = assay: microbe, parasite or virus in culture; conditions: ATCC 13833, 18 h
Description: as §1

E. coli ATCC 25922 = assay: microbe, parasite or virus in culture; conditions: ATCC 25922, 18 h
Description: as §1

P. aeruginosa ATTC 27853 = assay: microbe, parasite or virus in culture; conditions: ATTC 27853, 18 h
Description: as §1

Structure (SMILES) | MIC S. aureus ATCC 25923 (S. aureus ATCC 25923) [µg/mL] | MIC A. baumannii ATCC 19606 (A. baumannii ATCC 19606) [µg/mL] | MIC K. pneumoniae BAA 2146 (K. pneumoniae BAA 2146) [µg/mL] | MIC K. pneumoniae ATCC 700603 [1] [µg/mL] | MIC K. pneumoniae ATCC 13833 (K. pneumoniae ATCC 13833) [µg/mL] | MIC E. coli ATCC 25922 (E. coli ATCC 25922) [µg/mL] | MIC P. aeruginosa ATTC 27853 (P. aeruginosa ATTC 27853) [µg/mL] | CC50 at 24 h (in vitro) [µM]
CCCCCOc1cccc(C(=O)N[C@H](C(=O)N[C@@H](CCN)C(=O)N[C@H]2CCNC(=O)[C@H]([C@@H](C)O)NC(=O)[C@H](CCN)NC(=O)[C@H](CCN)NC(=O)[C@H](CC(C)C)NC(=O)[C@@H](Cc3ccccc3)NC(=O)[C@H](CCN)NC2=O)[C@@H](C)O)c1 [Compound 11] (X2-T[Dab][Dab][Dab][dF]L[Dab][Dab]T; lactam 3-C) | >32 | >32 | 8 (≈ 6.94 µM) | 32 (≈ 27.7 µM) | >32 | 8 (≈ 6.94 µM) | 2 (≈ 1.73 µM) | 93
CCCCCCCC(=O)N[C@H](C(=O)N[C@H](Cc1c[nH]cn1)C(=O)N[C@H]1CCNC(=O)[C@H]([C@@H](C)O)NC(=O)[C@H](CCN)NC(=O)[C@H](CCN)NC(=O)[C@H](CC(C)C)NC(=O)[C@@H](Cc2ccccc2)NC(=O)[C@H](CCN)NC1=O)[C@@H](C)O [Compound 48] (Octanoyl-T[dH][Dab][Dab][dF]L[Dab][Dab]T; lactam 3-C) | >32 | 4 (≈ 3.55 µM) | 4 (≈ 3.55 µM) | 4 (≈ 3.55 µM) | 4 (≈ 3.55 µM) | 2 (≈ 1.78 µM) | 16 (≈ 14.2 µM) | > 300
CC(C)C[C@@H]1NC(=O)[C@@H](Cc2ccccc2)NC(=O)[C@H](CCN)NC(=O)[C@@H](NC(=O)[C@H](CCN)NC(=O)[C@@H](NC(=O)c2ccnc(-c3ccccc3)c2)[C@@H](C)O)CCNC(=O)[C@H]([C@@H](C)O)NC(=O)[C@H](CCN)NC(=O)[C@H](CCN)NC1=O [Compound 10] ({Isonicotinoyl(2-Ph)}-T[Dab][Dab][Dab][dF]L[Dab][Dab]T; lactam 3-C) | >32 | >32 | 16 (≈ 14 µM) | 16 (≈ 14 µM) | >32 | 4 (≈ 3.5 µM) | 1 (≈ 0.874 µM) | > 300
CCCCCCCC(=O)N[C@H](C(=O)N[C@H](CCCN)C(=O)N[C@H]1CCNC(=O)[C@H]([C@@H](C)O)NC(=O)[C@H](CCN)NC(=O)[C@H](CCN)NC(=O)[C@H](CC(C)C)NC(=O)[C@@H](Cc2ccccc2)NC(=O)[C@H](CCN)NC1=O)[C@@H](C)O [Compound 41] (Octanoyl-T[dOrn][Dab][Dab][dF]L[Dab][Dab]T; lactam 3-C) | >32 | 16 (≈ 14.5 µM) | 1 (≈ 0.906 µM) | 4 (≈ 3.63 µM) | 32 (≈ 29 µM) | 1 (≈ 0.906 µM) | 4 (≈ 3.63 µM) | > 300

Second part, led by results:

MIC S. aureus ATCC 25923 (S. aureus ATCC 25923) [µg/mL] | MIC A. baumannii ATCC 19606 (A. baumannii ATCC 19606) [µg/mL] | MIC K. pneumoniae BAA 2146 (K. pneumoniae BAA 2146) [µg/mL] | MIC K. pneumoniae ATCC 700603 [1] [µg/mL] | MIC K. pneumoniae ATCC 13833 (K. pneumoniae ATCC 13833) [µg/mL] | MIC E. coli ATCC 25922 (E. coli ATCC 25922) [µg/mL] | MIC P. aeruginosa ATTC 27853 (P. aeruginosa ATTC 27853) [µg/mL] | Structure (SMILES) | CC50 at 24 h (in vitro) [µM]
>32 | 32 (≈ 29.7 µM) | 16 (≈ 14.9 µM) | >32 | >32 | 4 (≈ 3.72 µM) | 16 (≈ 14.9 µM) | CCCCCCCC(=O)N[C@H](C(=O)N[C@H](CO)C(=O)N[C@H]1CCNC(=O)[C@H]([C@@H](C)O)NC(=O)[C@H](CCN)NC(=O)[C@H](CCN)NC(=O)[C@H](CC(C)C)NC(=O)[C@@H](Cc2ccccc2)NC(=O)[C@H](CCN)NC1=O)[C@@H](C)O [Compound 36] (Octanoyl-T[dS][Dab][Dab][dF]L[Dab][Dab]T; lactam 3-C) | 213
>32 | >32 | >32 | >32 | >32 | 16 (≈ 14.3 µM) | 16 (≈ 14.3 µM) | CCCCCCCC(=O)N[C@H](C(=O)N[C@@H](CCN)C(=O)N[C@H]1CCCCNC(=O)[C@H]([C@@H](C)O)NC(=O)[C@H](CCN)NC(=O)[C@H](CCN)NC(=O)[C@H](CC(C)C)NC(=O)[C@@H](Cc2ccccc2)NC(=O)[C@H](CCN)NC1=O)[C@@H](C)O [Compound 18] (Octanoyl-T[Dab]K[Dab][dF]L[Dab][Dab]T; lactam 3-C) | 88
